Experimental data from patent US20070027144A1, “Novel use of cannabinoid receptor agonist” (SHIONOGI & CO., LTD., priority 2003, published 2007).

Experiments:
BN rats [1] = experiment: Antigen-induced bronchial hyperresponsiveness in BN rats (acute model); assay type: in vivo, Brown Norway (BN) rats; settings: oral once 1 h before antigen challenge, 10 mg/kg, P<0.01
Method: (§1) Antigen-induced bronchial hyperresponsiveness in BN rats: Brown Norway (BN) rats (Charles River Japan) were actively sensitized by the intraperitoneal injection of 1 mL mixture containing aluminum hydroxide gel (1 mg) and ovalbumin (0.1 mg, OVA). Ten days later, antigen challenge was performed by the inhalation of an aerosolized 1% OVA solution for 30 min using an ultrasonic nebulizer. ACh was intravenously injected to rats 24 h after antigen challenge under sodium pentobarbital anesthesia (80 mg/kg, i.p.) by increasing doses of ACh every 5 min, then bronchoconstrictor response observed immediately after each ACh injection was measured by the method of Konzett & Rössler with some modifications. Briefly, trachea of rats was incised and a cannula was attached to lung side. […] The insufflation pressure overflowed from inhalation tube was monitored by a pressure transducer (TP-400T, Nihon Kohden) and recorded on a recorder (WT-645G, Nihon Kohden) through a carrier amplifier (AP-601G, Nihon Kohden). […] The area under the curve (AUC) calculated from dose-response curve for ACh was compared between vehicle-treated control group and test compound-treated group, and then statistical significance was analyzed concerning inhibitory effect on bronchial hyperresponsiveness.

BN rats [2] = experiment: Antigen-induced airway inflammatory cell infiltration in BN rats (acute model); assay type: in vivo, Brown Norway (BN) rats; settings: oral, P<0.01
Method: as §1, with “hyperresponsiveness. […]” for “hyperresponsiveness.”

BN rats [3] = experiment: Antigen-induced mucus secretion in BN rats (acute model); assay type: in vivo, Brown Norway (BN) rats; settings: oral, 10 mg/kg, P<0.01
Method: as §1, with “hyperresponsiveness. […]” for “hyperresponsiveness.”

BN rats [4] = experiment: Antigen-induced bronchial hyperresponsiveness in BN rats (chronic model); assay type: in vivo; settings: oral for 8 days
Method: Antigen-induced bronchial hyperresponsiveness in BN rats: Brown Norway (BN) rats (Charles River Japan) were actively sensitized by the intraperitoneal injection of 1 mL mixture containing aluminum hydroxide gel (1 mg) and ovalbumin (0.1 mg, OVA). Ten days later, antigen challenge was performed by the inhalation of an aerosolized 1% OVA solution for 30 min using an ultrasonic nebulizer. ACh was intravenously injected to rats 24 h after antigen challenge under sodium pentobarbital anesthesia (80 mg/kg, i.p.) by increasing doses of ACh every 5 min, then bronchoconstrictor response observed immediately after each ACh injection was measured by the method of Konzett & Rössler with some modifications. Briefly, trachea of rats was incised and a cannula was attached to lung side. An artificial respirator (SN-480-7, Shinano) was connected to the cannula, and then a fixed amount of air (tidal volume: 3 mL, ventilation frequency: 60 times/min) continuously insufflated to maintain respiration. The insufflation pressure overflowed from inhalation tube was monitored by a pressure transducer (TP-400T, Nihon Kohden) and recorded on a recorder (WT-645G, Nihon Kohden) through a carrier amplifier (AP-601G, Nihon Kohden). Test compounds were administered orally once 1 h before antigen challenge. The area under the curve (AUC) calculated from dose-response curve for ACh was compared between vehicle-treated control group and test compound-treated group, and then statistical significance was analyzed concerning inhibitory effect on bronchial hyperresponsiveness.
(§2) Antigen-induced bronchial hyperresponsiveness in BN rats: BN rats were actively sensitized by the intraperitoneal injection of a mixture containing aluminum hydroxide gel and ovalbumin. Twelve days later, antigen challenge was performed by the inhalation of an aerosolized 1% OVA solution or physiological saline for 30 min using an ultrasonic nebulizer (NE-U12, Omron). […] Inhibitory effect on bronchial hyperresponsiveness was evaluated 24 h after last antigen challenge by the method described in the section of Experimental Example 1.

guinea pigs [5] = experiment: Antigen-induced bronchial hyperresponsiveness in guinea pigs (acute model); assay type: in vivo; settings: oral 1 h before antigen challenge
Method: (§3) Antigen-induced bronchial hyperresponsiveness in guinea pigs: Guinea pigs (Charles River Japan) held in an exposure chamber were actively sensitized by the inhalation of an aerosolized 1% OVA solution for 10 min using an ultrasonic nebulizer (NE-U12, Omron) twice with an interval of 1 week. One week later, antigen challenge was performed by inhalation of an aerosolized 1% OVA generated by an ultrasonic nebulizer for 5 min. Test compounds were administered orally 1 h before antigen challenge. In addition, guinea pigs were treated with diphenhydramine (10 mg/kg, i.p.), an antihistamine, to protect the animals from anaphylactic death 10 min before antigen challenge. ACh was intravenously injected to guinea pigs 24 h after antigen challenge under urethane anesthesia (1.4 g/kg, i.p.) by increasing doses of ACh every 5 min, then bronchoconstrictor response observed immediately after each ACh injection was measured by the method of Konzett & Rössler with some modifications. Briefly, trachea of guinea pigs was incised and a cannula was attached to the lung side. An artificial respirator (SN-480-7, Shinano) was connected to the cannula, and then a fixed amount of air (tidal volume: 4 mL, ventilation frequency: 60 times/min) continuously insufflated to maintain respiration. The insufflation pressure overflowed from inhalation tube was monitored by a pressure transducer (TP-400T, Nihon Kohden) and recorded on a recorder (WT-645G, Nihon Kohden) through a carrier amplifier (AP-601G, Nihon Kohden). The area under the curve (AUC) calculated from dose-response curve for ACh was compared between vehicle-treated control group and test compound-treated group, and then statistical significance was analyzed concerning inhibitory effect on bronchial hyperresponsiveness.

guinea pigs [6] = experiment: Antigen-induced airway inflammatory cell infiltration in guinea pigs (acute model); assay type: in vivo; settings: oral
Method: as §3, with “An artificial respirator (SN-480-7, Shinano) was connected to the cannula, and then a fixed amount of air (tidal volume: 4 mL, ventilation frequency: 60 times/min) continuously insufflated to maintain respiration.” left out
(§4) Antigen-induced airway inflammatory cell infiltration in guinea pigs: After finishing experiment mentioned above, the lungs are washed 3 times with 10 mL of physiological saline through tracheal cannula using injection syringe. Then the cell number in the washing was determined. […] Differential cell counts were performed after May-Grünwald-Giemsa staining, and then statistical significance was analyzed concerning inhibitory effect on airway inflammatory cell infiltration.

guinea pigs [7] = experiment: Bronchodilating effect in guinea pigs (ACh-induced bronchoconstriction); assay type: in vivo; settings: oral 1 h before ACh injection, 10 mg/kg, P<0.01
Method: Under urethane anesthesia (1.4 g/kg, i.p.), ACh was intravenously injected to guinea pigs by increasing doses of ACh every 5 min, then bronchoconstrictor response observed immediately after each ACh injection was measured by the method of Konzett & Rössler with some modifications. Briefly, trachea of guinea pigs was incised and a cannula was attached to the lung side. An artificial respirator (SN-480-7, Shinano) was connected to the cannula, and then a fixed amount of air (tidal volume: 4 mL, ventilation frequency: 60 times/min) continuously insufflated to maintain respiration. The insufflation pressure overflowed from inhalation tube was monitored by a pressure transducer (TP-400T, Nihon Kohden) and recorded on a recorder (WT-645G, Nihon Kohden) through a carrier amplifier (AP-601G, Nihon Kohden). Test compounds were administered orally 1 h before ACh injection, then the effect on the dose-response curve of ACh was examined. Statistical significance was analyzed concerning broncohdilating effect in guinea pigs.

BN rats [8] = experiment: Antigen-induced airway inflammatory cell infiltration in BN rats (chronic model); assay type: in vivo; settings: oral for 8 days, 100 mg/kg, P<0.01
Method: as §2, with “Omron). To establish chronic bronchial hyerreactivity model, this procedure was repeated 3 times with 1-week intervals. Test compounds were administered orally for 8 days from the day of third antigen challenge. On the day of third antigen challenge, test compounds were administered 1 h before challenge.” for “Omron).”
as §4, with “BN rats:” for “guinea pigs:”, “were” for “are”, “5” for “10”, “infiltration as in the section of Experimental Example 2.” for “infiltration.”

guinea pigs [9] = experiment: Antigen-induced bronchial hyperresponsiveness in guinea pigs (chronic model); assay type: in vivo; settings: oral for 8 days, 30 mg/kg, P<0.05
Method: as §3, with “An artificial respirator (SN-480-7, Shinano) was connected to the cannula, and then a fixed amount of air (tidal volume: 4 mL, ventilation frequency: 60 times/min) continuously insufflated to maintain respiration.” left out, “The area under the curve (AUC) calculated from dose-response curve for ACh was compared between vehicle-treated control group and test compound-treated group, and then statistical significance was analyzed concerning inhibitory effect on bronchial hyperresponsiveness.” left out

guinea pigs [10] = experiment: Antigen-induced airway inflammatory cell infiltration in guinea pigs (chronic model); assay type: in vivo; settings: oral for 8 days, 30 mg/kg, P<0.01
Method: (§5) Antigen-induced bronchial hyperresponsiveness in guinea pigs: Guinea pigs held in an exposure chamber were actively sensitized by the inhalation of an aerosolized 1% OVA solution for 10 min using an ultrasonic nebulizer (NE-U12, Omron) twice with an interval of 1 week. One week and 2 weeks later, antigen challenge was performed twice by inhalation of an aerosolized 1% OVA generated by an ultrasonic nebulizer for 5 min. Test compounds were administered orally for 8 days from the day of first antigen challenge. On the day of each antigen challenge, test compounds were administered 1 h before challenge. […] Inhibitory effect on bronchial hyperresponsiveness was evaluated 24 h after last antigen challenge by the method described in the section of Experimental Example 7. The area under the curve (AUC) calculated from dose-response curve for ACh was compared between vehicle-treated control group and test compound-treated group, and then statistical significance was analyzed concerning inhibitory effect on bronchial hyperresponsiveness.
Antigen-induced airway inflammatory cell infiltration in guinea pigs: After finishing experiment mentioned above, the lungs are washed 3 times with 10 mL of physiological saline through tracheal cannula using injection syringe. Then the cell number in the washing was determined. […]

guinea pigs [11] = experiment: Antigen-induced mucus secretion in guinea pigs (chronic model); assay type: in vivo; settings: oral for 8 days, 30 mg/kg, P<0.01
Method: as §5
Antigen-induced mucus secretion in guinea pigs: After measurement of bronchial hyperresponsiveness, the lungs are washed 3 times with 10 mL of physiological saline through tracheal cannula using injection syringe, and then the washing was centrifuged. […] Statistical significance was analyzed concerning inhibitory effect on mucus secretion.

CCCCn1c2c(cc(C(=O)NC(C)(C)c3ccccc3)c1=O)CCCCCC2 [Compound 4-320]
significant effect: inhibitory effect on bronchial hyperresponsiveness (AUC of ACh dose-response curve vs vehicle) (BN rats [1]) | inhibitory effect on airway inflammatory cell infiltration (BN rats [2]; 1 mg/kg) | inhibitory effect on airway inflammatory cell infiltration (BN rats [2]; 10 mg/kg) | inhibitory effect on mucus secretion (mucin levels in lung washing) (BN rats [3]) | inhibitory effect on bronchial hyperresponsiveness (BN rats [4]; 3 mg/kg, P<0.01) | inhibitory effect on bronchial hyperresponsiveness (AUC of ACh dose-response curve vs vehicle) (guinea pigs [5]; 1 mg/kg, P<0.01) | inhibitory effect on bronchial hyperresponsiveness (AUC of ACh dose-response curve vs vehicle) (guinea pigs [5]; 10 mg/kg, P<0.05) | inhibitory effect on airway inflammatory cell infiltration (guinea pigs [6]; 1 mg/kg, P<0.05) | inhibitory effect on airway inflammatory cell infiltration (guinea pigs [6]; 10 mg/kg, P<0.01) | bronchodilating effect (effect on the dose-response curve of ACh) (guinea pigs [7])

CSC(=S)N1CC2(CCCCC2)CS/C1=N\c1ccc(OC(F)(F)F)cc1 [Compound I-12]
significant effect: inhibitory effect on bronchial hyperresponsiveness (BN rats [4]; 30 mg/kg, P<0.01) | inhibitory effect on bronchial hyperresponsiveness (BN rats [4]; 100 mg/kg, P<0.05) | inhibitory effect on airway inflammatory cell infiltration (BN rats [8]) | inhibitory effect on bronchial hyperresponsiveness (AUC of ACh dose-response curve vs vehicle) (guinea pigs [5]; 10 mg/kg, P<0.05) | inhibitory effect on airway inflammatory cell infiltration (guinea pigs [6]; 10 mg/kg, P<0.05) | inhibitory effect on bronchial hyperresponsiveness (AUC of ACh dose-response curve vs vehicle) (guinea pigs [9]) | inhibitory effect on airway inflammatory cell infiltration (guinea pigs [10]) | inhibitory effect on mucus secretion (mucin levels in lung washing) (guinea pigs [11])
